Measured values reported in publication PMC7717600, “Novel [(N-alkyl-3-indolylmethylene)hydrazono]oxindoles arrest cell cycle and induce cell apoptosis by inhibiting CDK2 and Bcl-2: synthesis, biological evaluation and in silico studies” (Journal of Enzyme Inhibition and Medicinal Chemistry, 2020).
Where two headings read alike, the source gives them in different places.

Key:
MALME-3M = conditions: listed as D - 795311 / 1
SK-MEL-2 = conditions: for TGI: SK-MEL-2
SK-MEL-5 = conditions: for TGI: SK-MEL-5
UACC-257 = conditions: for TGI: UACC-257
UACC-62 = conditions: for TGI: UACC-62
IGROV1 = conditions: for TGI: IGROV1
OVCAR-3 = conditions: for TGI: OVCAR-3
OVCAR-5 = conditions: for TGI: OVCAR-5
OVCAR-8 = conditions: for TGI: OVCAR-8
A498 = conditions: for TGI: A498
RXF 393 = conditions: for TGI: RXF 393
TK-10 = conditions: for TGI: TK-10
DU-145 = conditions: for TGI: DU-145
MCF7 = conditions: for TGI: MCF7
BT-549 = conditions: for TGI: BT-549
MDA-MB-468 = conditions: for TGI: MDA-MB-468
NCI-H322M = assay: NCI SRB screening
[1] = SK-OV-3, listed as D - 795311 / 1

CCCn1cc(C=NN=C2C(=O)Nc3ccc(C)cc32)c2ccccc21 [Compound 8a]
TGI (MALME-3M): 6.03E-6 Molar | TGI (SK-MEL-2): 8.03 µM | GI % (SK-MEL-2; SK-MEL-2, 10 μM): 65% | Growth Percent (SK-MEL-2; SK-MEL-2, 1.00E-5 Molar): 35.06% | TGI (SK-MEL-2; listed as D - 795311 / 1): 8.03E-6 Molar | TGI (SK-MEL-5): 13.50 µM | GI % (SK-MEL-5; SK-MEL-5, 10 μM): 51% | Growth Percent (SK-MEL-5; SK-MEL-5, 1.00E-5 Molar): 49.07% | TGI (SK-MEL-5; listed as D - 795311 / 1): 1.35E-5 Molar | CC50 (SK-MEL-5; human, 48 h): 39 µM | TGI (UACC-257): 66.60 µM | GI % (UACC-257; UACC-257, 10 μM): 41% | Growth Percent (UACC-257; UACC-257, 1.00E-5 Molar): 58.80% | TGI (UACC-257; listed as D - 795311 / 1): 6.66E-5 Molar | TGI (UACC-62): 12.10 µM | GI % (UACC-62; UACC-62, 10 μM): 60% | Growth Percent (UACC-62; UACC-62, 1.00E-5 Molar): 40.39% | TGI (UACC-62; listed as D - 795311 / 1): 1.21E-5 Molar | TGI (IGROV1): 63.10 µM | GI % (IGROV1; IGROV1, 10 μM): 61% | Growth Percent (IGROV1; IGROV1, 1.00E-5 Molar): 39.38% | TGI (IGROV1; listed as D - 795311 / 1): 6.31E-5 Molar | TGI (OVCAR-3): 5.11 µM | GI % (OVCAR-3; OVCAR-3, 10 μM): 98% | Growth Percent (OVCAR-3; OVCAR-3, 1.00E-5 Molar): 2.10% | TGI (OVCAR-3; listed as D - 795311 / 1): 5.11E-6 Molar | TGI (OVCAR-5): 25.8 µM | GI % (OVCAR-5; OVCAR-5, 10 μM): 16% | Growth Percent (OVCAR-5; OVCAR-5, 1.00E-5 Molar): 84.60% | TGI (OVCAR-5; listed as D - 795311 / 1): 2.58E-5 Molar | TGI (OVCAR-8): >100 µM | GI % (OVCAR-8; OVCAR-8, 10 μM): 53% | Growth Percent (OVCAR-8; OVCAR-8, 1.00E-5 Molar): 47.49% | TGI (OVCAR-8; listed as D - 795311 / 1): > 1.00E-4 Molar | TGI (SK-OV-3; SK-OV-3): 67.10 µM | GI % (SK-OV-3; SK-OV-3, 10 μM): 12% | Growth Percent (SK-OV-3; SK-OV-3, 1.00E-5 Molar): 88.36% | GI50 (SK-OV-3; [1]): 11.7 µM | TGI (SK-OV-3; [1]): 6.71E-5 Molar | TGI (A498): 7.50 µM | GI % (A498; A498, 10 μM): 43% | Growth Percent (A498; A498, 1.00E-5 Molar): 57.21% | TGI (A498; listed as D - 795311 / 1): 7.50E-6 Molar | TGI (ACHN): >100 µM | GI % (ACHN; 10 μM): 45% | Growth Percent (ACHN; 1.00E-5 Molar): 55.74% | TGI (ACHN; listed as D - 795311 / 1): > 1.00E-4 Molar | TGI (RXF 393): 7.94 µM | GI % (RXF 393; RXF 393, 10 μM): 89% | Growth Percent (RXF 393; RXF 393, 1.00E-5 Molar): 11.38% | TGI (RXF 393; listed as D - 795311 / 1): 7.94E-6 Molar | TGI (TK-10): >100 µM | GI % (TK-10; TK-10, 10 μM): – (Only GI % higher than 10% are shown) | Growth Percent (TK-10; TK-10, 1.00E-5 Molar): 106.72% | TGI (TK-10; listed as D - 795311 / 1): > 1.00E-4 Molar | GI % (UO-31; UO-31, 10 μM): 40% | Growth Percent (UO-31; UO-31, 1.00E-5 Molar): 60.00% | TGI (UO-31; UO-31, listed as D - 795311 / 1): 6.18E-5 Molar | TGI (DU-145): 40.60 µM | GI % (DU-145; DU-145, 10 μM): 34% | Growth Percent (DU-145; DU-145, 1.00E-5 Molar): 66.43% | TGI (DU-145; listed as D - 795311 / 1): 4.06E-5 Molar | TGI (MCF7): 15.50 µM | GI % (MCF7; MCF7, 10 μM): 91% | Growth Percent (MCF7; MCF7, 1.00E-5 Molar): 8.92% | TGI (MCF7; listed as D - 795311 / 1): 1.55E-5 Molar | GI % (MDA-MB-231/ATCC; MDA-MB-231, 10 μM): 66% | TGI (MDA-MB-231/ATCC; MDA-MB-231/ATCC): 7.40 µM | Growth Percent (MDA-MB-231/ATCC; MDA-MB-231/ATCC, 1.00E-5 Molar): 34.35% | TGI (MDA-MB-231/ATCC; MDA-MB-231/ATCC, listed as D - 795311 / 1): 7.40E-6 Molar | TGI (HS 578T): >100 µM | GI % (HS 578T; 10 μM): 26% | Growth Percent (HS 578T; 1.00E-5 Molar): 74.02% | TGI (HS 578T; listed as D - 795311 / 1): > 1.00E-4 Molar | TGI (BT-549): 6.33 µM | GI % (BT-549; BT-549, 10 μM): 37% | Growth Percent (BT-549; BT-549, 1.00E-5 Molar): 63.53% | TGI (BT-549; listed as D - 795311 / 1): 6.33E-6 Molar | GI50 (T-47D): 0.41 µM | TGI (T-47D): 18.40 µM | GI % (T-47D; 10 μM): 61% | Growth Percent (T-47D; 1.00E-5 Molar): 39.59% | TGI (T-47D; listed as D - 795311 / 1): 1.84E-5 Molar | TGI (MDA-MB-468): 5.78 µM | GI % (MDA-MB-468; MDA-MB-468, 10 μM): 75% | Growth Percent (MDA-MB-468; MDA-MB-468, 1.00E-5 Molar): 25.19% | TGI (MDA-MB-468; listed as D - 795311 / 1): 5.78E-6 Molar | TGI (NCI-H322M): >100 µM | GI % (NCI-H322M; 10 μM): 53% | Growth Percent (NCI-H322M; 1.00E-5 Molar): 47.76% | GI50 (NCI-H322M; Homo sapiens): 3.42 µM | CC50 (NCI-H322M; Homo sapiens, read-out: LC50): > 100 µM | TGI (NCI-H322M; listed as D - 795311 / 1): > 1.00E-4 Molar
